Data as given in patent US6720346B2, “Thiazole benzamide derivatives and pharmaceutical compositions for inhibiting cell proliferation” (Agouron Pharmaceuticals, Inc., priority 2001, dated 2004).
pIC50, pKi: −log10 of the molar value.

Legend:
[1] = target: T1, phosphorylated LCK kinase (Homo sapiens, UniProt P06239, C224D/P223M); test: Inhibition of phosphorylated LCK tyrosine kinase activity (coupled spectrophotometric assay); format: biochemical; settings: read-out: P-LCK % Inhibition at 1 μM
T1 construct: starting from amino acid 223 to the end of the protein at amino acid 509; made in house; host or cells: insect cells
T1 sequence (P06239 223-509 P223M/C224D): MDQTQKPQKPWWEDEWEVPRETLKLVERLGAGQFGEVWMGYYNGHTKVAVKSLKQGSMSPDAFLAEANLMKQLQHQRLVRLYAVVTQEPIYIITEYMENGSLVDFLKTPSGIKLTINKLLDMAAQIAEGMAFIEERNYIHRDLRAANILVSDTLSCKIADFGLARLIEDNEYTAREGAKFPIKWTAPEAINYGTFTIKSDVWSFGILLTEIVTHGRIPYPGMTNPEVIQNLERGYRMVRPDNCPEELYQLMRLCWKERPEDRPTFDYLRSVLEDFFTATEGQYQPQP
Protocol: (§1) Cloning, expression and purification of the cytosolic domain of FGFR1 tyrosine kinase (amino acids 456-766) containing three amino acid substitutions (L457V, C488A, and C584S) were conducted as previously described (Mohammadi, M., Schiessinger, J., & Hubbard, S. R. Cell, 86, (1996) 577-587). This domain was expressed in Sf9 insect cells using a baculovirus expression vector, and protein was purified using conventional techniques. The LCK tyrosine kinase was expressed in insect cells as an N-terminal deletion starting from amino acid 223 to the end of the protein at amino acid 509. The N-terminus of the protein also had two amino acid substitutions, P223M and C224D. Kinases were purified using conventional chromatographic methods.
(§2) Tyrosine kinase activity was measured using a coupled, continuous spectrophotometric assay, in which production of phosphorylated poly(Glu,Tyr; 4:1) substrate and ADP is coupled to the pyruvate kinase-catalyzed transfer of a phosphate from phosphoenolpyruvate to ADP, with generation of pyruvate and regeneration of ATP. Pyruvate production is in turn coupled to the lactate dehydrogenase-catalyzed reduction of pyruvate to form lactate, with concomitant conversion of NADH to NAD^+. Loss of NADH is monitored by measuring absorbance at 340 nm (see e.g., Technikova-Dobrova et al., “Spectrophotometric Determination of Functional Characteristics of Protein Kinases with Coupled Enzymatic Assay,” FEBS Letters, 292 (1991), pp. 69-72). Enzyme activity was measured in the presence of 200 mM HEPES (pH 7.5), 2 mM phosphoenolpyruvate, 0.3 mM NADH, 20 mM MgCl2, 100 μM ATP, 5 mM DTT, 5.1 or 25 mM poly (Glu,Tyr) 4:1 for P-FGF or P-LCK assays, respectively, and 15 units/mL each of pyruvate kinase and lactate dehydrogenase. Phosphorylated FGF receptor kinase was present at 100 nM and phosphorylated LCK kinase was present at 50 nM. Assays were performed under initial rate conditions at 37° C., and rates were corrected for any background rate measured in the absence of enzyme. Percent inhibition was calculated relative to control enzyme assayed in the presence of 2% (v/v) DMSO.

CDK2/cyclin A = target: T2, CDK2/cyclin A (Homo sapiens, UniProt P24941); test: Inhibition of CDK2/cyclin A retinoblastoma kinase activity (Ki; % inhibition); format: biochemical; settings: for pKi: apparent Ki, CDK2/cyclin A, Rb substrate; for CDK2 % Inhibition at 0.03 μM: 0.03 μM compound
T2 construct: made in house; host or cells: CDK2: insect cells (baculovirus); cyclin A: E. coli
How it was run: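 Radiometric filter assay of CDK2/proteolyzed cyclin A (baculovirus-expressed human CDK2, 10 or 19 nM) phosphorylating an Rb fragment with 25 μM [³²P/³³P]ATP in pH 7.4 HEPES, 2% DMSO, at 30 °C for 60 or 75 min under initial-rate conditions. Library compounds screened at 30 nM for % inhibition; apparent Ki from concentration series fit to competitive or tight-binding inhibition equations.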

human CDK4/cyclin D3 = target: T3, human CDK4/cyclin D3 (Homo sapiens, UniProt P11802); test: Inhibition of CDK4/cyclin D retinoblastoma kinase activity (Ki; % inhibition); format: biochemical; settings: for pKi: apparent Ki, CDK4/cyclin D3, Rb substrate; for CDK4 % Inhibition at 0.03 μM: 0.03 μM compound
T3 construct: made in house; host or cells: insect cells co-infected with baculovirus vectors
T3 sequence (P11802 whole entry): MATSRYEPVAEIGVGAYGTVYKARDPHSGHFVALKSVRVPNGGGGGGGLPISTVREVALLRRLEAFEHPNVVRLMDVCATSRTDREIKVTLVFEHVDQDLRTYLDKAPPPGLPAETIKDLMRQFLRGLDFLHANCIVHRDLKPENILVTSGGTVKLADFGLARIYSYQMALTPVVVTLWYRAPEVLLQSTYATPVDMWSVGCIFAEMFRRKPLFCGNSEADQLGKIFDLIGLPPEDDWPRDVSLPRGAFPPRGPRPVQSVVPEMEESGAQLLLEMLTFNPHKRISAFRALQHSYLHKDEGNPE
T3 sequence (P30281 1-264 partner limits assumed): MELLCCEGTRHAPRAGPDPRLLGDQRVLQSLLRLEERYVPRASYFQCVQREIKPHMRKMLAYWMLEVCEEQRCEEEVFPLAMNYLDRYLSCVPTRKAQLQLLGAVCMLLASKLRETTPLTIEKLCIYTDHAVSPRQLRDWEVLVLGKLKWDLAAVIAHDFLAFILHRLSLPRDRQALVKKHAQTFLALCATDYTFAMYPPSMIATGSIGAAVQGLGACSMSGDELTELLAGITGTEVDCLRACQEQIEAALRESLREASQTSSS
How it was run: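 Insect-cell-expressed CDK4 with truncated cyclin D3 (1-264), 5 nM, phosphorylating His-tagged Rb fragment (386-928) with 25 μM [32/33P]ATP at pH 7.4, 30 °C, 20 min (60 min for tight binders). Filter capture, phosphorimager read; % inhibition at 30 nM compound, Ki from competitive or tight-binding fits.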

HCT-116 cell line = test: Inhibition of cell growth, MTT tetrazolium salt assay; format: cell-based; settings: for pIC50: Homo sapiens, HCT-116, 120 h, MTT, three to five days; for HCT-116 % Inhibition at 0.1 μM / HCT-116 % Inhibition at 0.25 μM: HCT-116 cells; for HCT-116 % Inhibition at 0.1 μM: 0.1 μM compound; for HCT-116 % Inhibition at 0.25 μM: 0.25 μM compound
How it was run: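 Growth inhibition was read as MTT-formazan absorbance at 540 nm, after 4 h with 0.2 mg/mL MTT. Before that, HCT-116 cells had been exposed 3–5 days at 37 °C to compounds in 0.5% (v/v) DMSO, added 4 h after plating. 50% and 90% inhibitory concentrations were taken from semi-log concentration–inhibition plots versus vehicle controls.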

[2] = target: T4, Phosphorylated FGF receptor kinase (FGFR1 cytosolic domain) (Homo sapiens, UniProt P11362, C488A/C584S/L457V); test: Inhibition of phosphorylated FGF receptor tyrosine kinase activity (coupled spectrophotometric assay); format: biochemical; settings: read-out: P-FGF % Inhibition at 1 μM
T4 construct: FGFR1 tyrosine kinase (amino acids 456-766); made in house; host or cells: Sf9 insect cells (baculovirus)
T4 sequence (P11362 456-766 L457V/C488A/C584S): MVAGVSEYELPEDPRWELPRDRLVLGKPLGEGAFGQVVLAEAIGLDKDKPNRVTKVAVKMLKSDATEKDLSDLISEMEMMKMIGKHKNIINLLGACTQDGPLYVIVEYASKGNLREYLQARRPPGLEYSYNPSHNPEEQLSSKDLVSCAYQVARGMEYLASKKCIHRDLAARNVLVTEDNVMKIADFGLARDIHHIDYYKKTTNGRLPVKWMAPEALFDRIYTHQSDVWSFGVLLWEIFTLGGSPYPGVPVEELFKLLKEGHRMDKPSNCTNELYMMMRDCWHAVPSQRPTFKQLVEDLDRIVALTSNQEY
Protocol: as §1, §2

Compound	inhibition at 1 µM [1] [%]	pKi (CDK2/cyclin A)	pKi (human CDK4/cyclin D3)	pIC50 (HCT-116 cell line)	inhibition at 1 µM [2] [%]	CDK2 % Inhibition at 0.03 μM (CDK2/cyclin A) [%]	CDK4 % Inhibition at 0.03 μM (human CDK4/cyclin D3) [%]	HCT-116 % Inhibition at 0.1 μM (HCT-116 cell line) [%]	HCT-116 % Inhibition at 0.25 μM (HCT-116 cell line) [%]	further results
Nc1nc(Nc2ccc(C(=O)NCCNc3ccccc3)cc2)sc1C(=O)c1c(F)cccc1F [Example A2, 4-[4-Amino-5-(2,6-difluoro-benzoyl)-thiazol-2-ylamino]-N-(2-phenylamino-ethyl)-benzamide]	4	8.49	8.10	6.85	8	–	–	–	–	–
CN(C)CCN(C)C(=O)c1ccc(Nc2nc(N)c(C(=O)c3c(F)cccc3F)s2)cc1 [Example A3, 4-[4-Amino-5-(2,6-difluoro-benzoyl)-thiazol-2-ylamino]-N-(2-dimethylamino-ethyl)-N-methyl-benzamide]	5	6.77	7.68	6.12	7	–	–	–	–	–
CC(CCCC(C)(C)O)NC(=O)c1ccc(Nc2nc(N)c(C(=O)c3c(F)cccc3F)s2)cc1 (stereo not shown) [Example A5, 4-[4-Amino-5-(2,6-difluoro-benzoyl)-thiazol-2-ylamino]-N-(6-hydroxy-6-methyl-hept-2-yl)-benzamide]	3	7.14	7.18	5.92	5	–	–	–	–	–
Nc1nc(Nc2ccc(C(=O)Nc3ccccc3)cc2)sc1C(=O)c1c(F)cccc1F [Example A9, 4-[4-Amino-5-(2,6-difluoro-benzoyl)-thiazol-2-ylamino]-N-phenyl-benzamide]	5	7.57	7.92	6.85	5	–	–	–	–	–
CCN1CCCC1CNC(=O)c1ccc(Nc2nc(N)c(C(=O)c3c(F)cccc3F)s2)cc1 (stereo not shown) [Example A11, 4-[4-Amino-5-(2,6-difluoro-benzoyl)-2-ylamino]-N-(1-ethyl-pyrrolidin-2RS-ylmethyl)-benzamide]	6	7.09	7.85	6.77	–	–	–	–	–	–
Nc1nc(Nc2ccc(C(=O)Nc3ccc4c(c3)OCCO4)cc2)sc1C(=O)c1c(F)cccc1F [Example A17, 4-[4-Amino-5-(2,6-difluoro-benzoyl)-thiazol-2-ylamino]-N-(2,3-dihydro-benzo[1,4]dioxin-6-yl)-benzamide]	0	7.29	7.59	7.00	0	–	–	–	–	–
CC(=O)N(C)c1ccc(NC(=O)c2ccc(Nc3nc(N)c(C(=O)c4c(F)cccc4F)s3)cc2)cc1 [Example A25]	0	7.21	7.89	7.03	0	–	–	–	–	–
CC(NC(=O)c1ccc(Nc2nc(N)c(C(=O)c3c(F)cccc3F)s2)cc1)C1CCCCC1 (stereo not shown) [Example G388]	–	–	–	–	–	–	–	–	–	CDK2 % Inhibition at 0.03 μM (CDK2/cyclin A; 0.03 µM): 3%; CDK4 % Inhibition at 0.03 μM (human CDK4/cyclin D3; 0.03 µM): 8%; HCT-116 % Inhibition at 0.1 μM (HCT-116 cell line; 0.1 µM): 9%; HCT-116 % Inhibition at 0.25 μM (HCT-116 cell line; 0.25 µM): 45%
CN(C)CCNC(=O)c1cccc(Nc2nc(N)c(C(=O)c3c(F)cccc3F)s2)c1 [F]	–	6.57	6.85	5.74	–	–	–	–	–	–

The next lines start with results.

inhibition at 1 µM [1] [%]	pKi (CDK2/cyclin A)	pKi (human CDK4/cyclin D3)	pIC50 (HCT-116 cell line)	inhibition at 1 µM [2] [%]	CDK2 % Inhibition at 0.03 μM (CDK2/cyclin A) [%]	CDK4 % Inhibition at 0.03 μM (human CDK4/cyclin D3) [%]	Compound	HCT-116 % Inhibition at 0.1 μM (HCT-116 cell line) [%]	HCT-116 % Inhibition at 0.25 μM (HCT-116 cell line) [%]	further results
–	–	–	–	–	−12	4	CC(C)c1cccc(NC(=O)c2ccc(Nc3nc(N)c(C(=O)c4c(F)cccc4F)s3)cc2)c1 [Example G389]	11	61	–
–	–	–	–	–	−14	2	Nc1nc(Nc2ccc(C(=O)N3CCC(CO)CC3)cc2)sc1C(=O)c1c(F)cccc1F [Example G390]	10	40	–
–	–	–	–	–	1	−7	Nc1nc(Nc2ccc(C(=O)NCC(O)c3ccccc3)cc2)sc1C(=O)c1c(F)cccc1F (stereo not shown) [Example G391]	11	50	–
–	–	–	–	–	12	−2	CCOC(CCCNC(=O)c1ccc(Nc2nc(N)c(C(=O)c3c(F)cccc3F)s2)cc1)OCC [Example G392]	8	49	–
–	–	–	–	–	8	0	Cc1cc(NC(=O)c2ccc(Nc3nc(N)c(C(=O)c4c(F)cccc4F)s3)cc2)no1 [Example G393]	8	46	–
–	–	–	–	–	35	11	Nc1nc(Nc2ccc(C(=O)Nc3ccc(O)c(Cl)c3)cc2)sc1C(=O)c1c(F)cccc1F [Example G394]	14	73	–
–	–	–	–	–	17	15	Nc1nc(Nc2ccc(C(=O)N3CCN(CCc4cccs4)CC3)cc2)sc1C(=O)c1c(F)cccc1F [Example G395]	19	48	–
–	–	–	–	–	−6	9	Cc1ccc(O)c(NC(=O)c2ccc(Nc3nc(N)c(C(=O)c4c(F)cccc4F)s3)cc2)c1 [Example G396]	14	67	–
